Experimental data published in US8501720B2, “Method for treatment of dysmenorrhea” (Bayer Pharma AG, priority 2004, dated 2013).

Tests used:
[1] = pharmacokinetics of drospirenone; type: in vivo; settings: i.e. after at most a week
Description: For example, in the present study, there was, a significant reduction of edema and breast tenderness among long-cycle users in comparison with the women on the conventional 21-day monthly cycle. Thus, in the event of these symptoms being present, a regimen of 42-126 days could be recommended.

[2] = in vivo; cited from earlier work
[3] = Hershberger test; cited from earlier work

time to steady state [1]: about four
SMILES: C[C@]12CCC(=O)C=C1[C@@H]1C[C@@H]1[C@H]1[C@@H]3[C@@H]4C[C@@H]4[C@@]4(CCC(=O)O4)[C@@]3(C)CC[C@@H]12 [drospirenone]
half-life [2]: about 27 h
antiandrogenic properties compared with chlormadinone acetate [3]: exceed those of chlormadinone acetate
antiandrogenic properties relative to cyproterone acetate [3]: approximately one-third
